Experimental data taken from patent US20240317777A1, “NOVEL MACROCYCLIC AMINOPYRAZOLE COMPOUNDS AS CDK2 INHIBITORS” (Accutar Biotechnology Inc., priority 2023, published 2024).
Where two headings read alike, the source gives them in different places.

Columns and labels:
CDK6-CYCLIN D3 = CDK6-CYCLIN D3 (Homo sapiens, UniProt Q00534); assay: CDK protein kinase inhibition by ADP-Glo assay, CDK6-CYCLIN D3; format: biochemical; conditions: for IC50: ADP-Glo, 1000 μM ATP, read-out: CDK6-CYCLIND3, IC50; for CDK2 Fold selectivity, CDK6: CDK2 versus CDK6
Chain of CDK6-CYCLIN D3 (Q00534 whole entry): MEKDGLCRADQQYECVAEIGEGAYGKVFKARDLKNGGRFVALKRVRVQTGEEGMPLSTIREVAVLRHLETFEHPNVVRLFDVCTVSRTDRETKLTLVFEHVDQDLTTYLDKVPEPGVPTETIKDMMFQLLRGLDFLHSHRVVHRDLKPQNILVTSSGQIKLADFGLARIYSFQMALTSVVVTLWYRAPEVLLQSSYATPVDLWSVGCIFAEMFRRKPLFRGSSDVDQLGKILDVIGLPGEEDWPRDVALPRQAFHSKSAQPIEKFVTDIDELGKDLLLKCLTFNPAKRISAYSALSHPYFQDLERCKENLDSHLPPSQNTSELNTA
Chain of CDK6-CYCLIN D3 (P30281 whole entry partner): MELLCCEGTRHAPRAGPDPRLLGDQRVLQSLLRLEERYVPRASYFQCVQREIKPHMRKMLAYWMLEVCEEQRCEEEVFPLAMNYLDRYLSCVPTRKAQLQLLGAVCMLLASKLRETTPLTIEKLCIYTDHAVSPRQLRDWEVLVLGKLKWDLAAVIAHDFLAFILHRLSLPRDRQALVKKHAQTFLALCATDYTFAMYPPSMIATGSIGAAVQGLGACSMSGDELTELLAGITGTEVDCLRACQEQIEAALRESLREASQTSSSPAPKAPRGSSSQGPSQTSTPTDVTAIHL
Procedure, shortened: (§1)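 Human CDK/cyclin complexes phosphorylated peptide substrates at 22° C in 100 mM HEPES pH 7.5 with 5 mM MgCl2, 1 mM DTT, 0.1% BSA, 0.01% Triton X-100 and 1000 μM ATP (1% DMSO). ADP formed was detected by ADP-Glo luminescence.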

[1] = system: Phospho-Rb (Ser807/811) in OVCAR3 cells; assay: Phospho-Rb expression inhibition in OVCAR3 cells quantified by In Cell Western; format: cell-based; conditions: Homo sapiens, OVCAR-3, 24 hours, read-out: OVCAR-3 pRb IC50
Procedure, shortened: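 In-cell western: after 24 h compound exposure at 37° C, fixed OVCAR3 cells co-stained for pRb Ser807/811 (800 nm channel) and total Rb (680 nm channel), imaged by LI-COR Odyssey.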

[2] = system: CCNE1-amplified OVCAR3 cells; assay: Cell growth inhibition of CCNE1-amplified OVCAR3 cells (CellTiter-Glo); format: cell-based; conditions: Homo sapiens, OVCAR-3, 144 h, 6 days
Procedure, shortened: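 Growth read-out was CellTiter-Glo luminescence, taken after 10 min at room temperature at the end of a 6-day compound exposure at 37 °C. Compounds were diluted from DMSO stocks across various concentrations.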

CCNE1-normal SKOV3 cells = assay: Cell growth inhibition of CCNE1-normal SKOV3 cells (CellTiter-Glo); format: cell-based; conditions: Homo sapiens, SK-OV-3, 144 h, 6 days
Procedure, shortened: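 Growth was measured by CellTiter-Glo luminescence after 6 days' compound exposure at 37 °C. Cells were plated one day before dosing at 1000 per well in medium with 10% FBS, and compounds were diluted from DMSO stocks.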

CDK2-CYCLIN E1 = CDK2-CYCLIN E1 (Homo sapiens, UniProt P24941); assay: CDK protein kinase inhibition by ADP-Glo assay, CDK2-CYCLIN E1; format: biochemical; conditions: ADP-Glo, 1000 μM ATP, read-out: CDK2-CYCLINE, IC50
Procedure, shortened: as §1

CDK4-CYCLIN D1 = CDK4-CYCLIN D1 (Homo sapiens, UniProt P11802); assay: CDK protein kinase inhibition by ADP-Glo assay, CDK4-CYCLIN D1; format: biochemical; conditions: for IC50: ADP-Glo, 1000 μM ATP, read-out: CDK4-CYCLIND1, IC50; for CDK2 Fold selectivity, CDK4: CDK2 versus CDK4
Chain of CDK4-CYCLIN D1 (P11802 whole entry): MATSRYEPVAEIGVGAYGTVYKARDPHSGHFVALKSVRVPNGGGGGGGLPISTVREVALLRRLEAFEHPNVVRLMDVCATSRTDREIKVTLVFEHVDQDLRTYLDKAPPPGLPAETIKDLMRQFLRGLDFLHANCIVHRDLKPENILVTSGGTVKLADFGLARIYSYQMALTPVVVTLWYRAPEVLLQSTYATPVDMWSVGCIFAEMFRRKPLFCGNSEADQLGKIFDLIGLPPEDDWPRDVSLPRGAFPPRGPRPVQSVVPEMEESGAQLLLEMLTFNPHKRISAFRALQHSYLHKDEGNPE
Chain of CDK4-CYCLIN D1 (P24385 whole entry partner): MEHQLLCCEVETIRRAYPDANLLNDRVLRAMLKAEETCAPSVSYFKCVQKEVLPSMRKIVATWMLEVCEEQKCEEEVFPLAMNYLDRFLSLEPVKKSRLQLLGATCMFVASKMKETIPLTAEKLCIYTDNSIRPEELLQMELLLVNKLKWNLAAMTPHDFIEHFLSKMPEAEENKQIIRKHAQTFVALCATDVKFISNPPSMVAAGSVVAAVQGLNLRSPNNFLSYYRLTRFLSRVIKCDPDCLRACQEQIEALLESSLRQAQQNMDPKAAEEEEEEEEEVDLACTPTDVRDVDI
Procedure, shortened: as §1

CDK9-CYCLIN T1 = CDK9-CYCLIN T1 (Homo sapiens, UniProt P50750); assay: CDK protein kinase inhibition by ADP-Glo assay, CDK9-CYCLIN T1; format: biochemical; conditions: for IC50: ADP-Glo, 1000 μM ATP, read-out: CDK9-CYCLINT1, IC50; for CDK2 Fold selectivity, CDK9: CDK2 versus CDK9
Chain of CDK9-CYCLIN T1 (P50750 whole entry): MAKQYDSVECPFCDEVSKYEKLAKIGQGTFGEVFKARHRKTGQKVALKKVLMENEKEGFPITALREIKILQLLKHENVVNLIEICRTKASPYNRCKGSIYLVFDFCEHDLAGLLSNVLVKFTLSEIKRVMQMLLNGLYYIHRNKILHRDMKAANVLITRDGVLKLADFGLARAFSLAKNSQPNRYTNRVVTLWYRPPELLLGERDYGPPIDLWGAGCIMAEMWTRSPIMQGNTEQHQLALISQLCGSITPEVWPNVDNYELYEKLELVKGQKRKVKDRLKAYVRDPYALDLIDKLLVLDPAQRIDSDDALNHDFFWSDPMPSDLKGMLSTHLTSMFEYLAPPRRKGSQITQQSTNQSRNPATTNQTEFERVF
Chain of CDK9-CYCLIN T1 (O60563 whole entry partner): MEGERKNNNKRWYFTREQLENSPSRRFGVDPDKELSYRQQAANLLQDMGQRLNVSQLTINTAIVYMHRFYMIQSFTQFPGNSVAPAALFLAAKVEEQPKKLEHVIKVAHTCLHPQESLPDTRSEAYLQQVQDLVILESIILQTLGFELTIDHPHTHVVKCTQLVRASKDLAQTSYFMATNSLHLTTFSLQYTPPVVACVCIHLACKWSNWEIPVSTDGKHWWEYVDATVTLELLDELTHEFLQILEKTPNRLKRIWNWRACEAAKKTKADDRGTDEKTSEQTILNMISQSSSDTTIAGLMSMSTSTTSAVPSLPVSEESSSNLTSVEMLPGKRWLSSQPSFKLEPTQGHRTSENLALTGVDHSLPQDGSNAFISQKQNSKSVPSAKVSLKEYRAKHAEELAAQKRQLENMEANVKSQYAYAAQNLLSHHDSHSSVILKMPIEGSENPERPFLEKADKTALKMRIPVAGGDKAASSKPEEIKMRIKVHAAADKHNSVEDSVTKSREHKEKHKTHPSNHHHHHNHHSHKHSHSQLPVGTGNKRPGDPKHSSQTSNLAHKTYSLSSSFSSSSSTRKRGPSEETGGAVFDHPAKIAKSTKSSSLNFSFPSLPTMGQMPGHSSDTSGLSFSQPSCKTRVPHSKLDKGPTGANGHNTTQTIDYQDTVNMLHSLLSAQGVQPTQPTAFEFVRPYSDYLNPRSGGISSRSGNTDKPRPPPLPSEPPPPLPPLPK
Procedure, shortened: as §1

CDK1-CYCLIN B = CDK1-CYCLIN B (Homo sapiens, UniProt P06493); assay: CDK protein kinase inhibition by ADP-Glo assay, CDK1-CYCLIN B; format: biochemical; conditions: for IC50: ADP-Glo, 1000 μM ATP, read-out: CDK1-CYCLINB, IC50; for CDK2 Fold selectivity, CDK1: CDK2 versus CDK1
Chain of CDK1-CYCLIN B (P06493 whole entry): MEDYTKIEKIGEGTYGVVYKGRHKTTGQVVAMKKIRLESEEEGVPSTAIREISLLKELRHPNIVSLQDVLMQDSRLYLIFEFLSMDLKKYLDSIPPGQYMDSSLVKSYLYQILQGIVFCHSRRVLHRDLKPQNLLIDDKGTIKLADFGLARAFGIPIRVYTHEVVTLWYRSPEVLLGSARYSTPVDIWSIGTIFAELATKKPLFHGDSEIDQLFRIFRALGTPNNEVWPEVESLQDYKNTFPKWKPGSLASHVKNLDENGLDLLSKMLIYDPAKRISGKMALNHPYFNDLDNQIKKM
Chain of CDK1-CYCLIN B (P14635 whole entry partner): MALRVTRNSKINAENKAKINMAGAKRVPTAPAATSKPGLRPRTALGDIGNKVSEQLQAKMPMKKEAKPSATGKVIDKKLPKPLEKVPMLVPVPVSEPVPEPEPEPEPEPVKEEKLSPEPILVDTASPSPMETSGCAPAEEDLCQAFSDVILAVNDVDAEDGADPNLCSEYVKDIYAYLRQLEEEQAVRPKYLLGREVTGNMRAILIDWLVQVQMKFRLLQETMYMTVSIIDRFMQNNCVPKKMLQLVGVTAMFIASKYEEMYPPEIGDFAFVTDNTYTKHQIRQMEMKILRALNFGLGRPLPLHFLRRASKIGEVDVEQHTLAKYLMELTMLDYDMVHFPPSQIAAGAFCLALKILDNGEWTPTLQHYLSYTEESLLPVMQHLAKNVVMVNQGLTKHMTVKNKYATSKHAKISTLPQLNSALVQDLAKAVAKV
Procedure, shortened: as §1

Row | SMILES | IC50 (CDK6-CYCLIN D3; Table 19) [nM] | CDK2 Fold selectivity, CDK6 (CDK6-CYCLIN D3; Table 20) | IC50 [1] [nM] | IC50 [2] [nM] | IC50 (CCNE1-normal SKOV3 cells) [nM] | IC50 (CDK2-CYCLIN E1; Table 19) [nM] | IC50 (CDK4-CYCLIN D1; Table 19) [nM] | CDK2 Fold selectivity, CDK4 (CDK4-CYCLIN D1; Table 20) | IC50 (CDK9-CYCLIN T1; Table 19) [nM] | CDK2 Fold selectivity, CDK9 (CDK9-CYCLIN T1; Table 20) | IC50 (CDK1-CYCLIN B; Table 19) [nM] | CDK2 Fold selectivity, CDK1 (CDK1-CYCLIN B; Table 20) | IC50 (CDK6-CYCLIN D3; Table 13) [nM] | CDK2 Fold selectivity, CDK6 (CDK6-CYCLIN D3; Table 14) | IC50 (CDK2-CYCLIN E1; Table 13) [nM] | IC50 (CDK4-CYCLIN D1; Table 13) [nM] | CDK2 Fold selectivity, CDK4 (CDK4-CYCLIN D1; Table 14) | IC50 (CDK9-CYCLIN T1; Table 13) [nM] | CDK2 Fold selectivity, CDK9 (CDK9-CYCLIN T1; Table 14) | IC50 (CDK1-CYCLIN B; Table 13) [nM] | also measured
1 | C[C@H]1CCCCc2cc(ccn2)Nc2cc(n[nH]2)[C@H]2CC[C@H](C2)OC(=O)N1 [Compound 114, (1^1S,1^3R,9S,Z)-9-methyl-2^1H-12-oxa-3,10-diaza-4(4,2)-pyridina-2(3,5)-pyrazola-1(1,3)-cyclopentanacyclododecaphan-11-one] | 100 to 500 | E (E, <20) | 10 to 50 | 10 to 50 | 250 to 1250 | ≤ 10 | 50 to 100 | E (E, <20) | 100 to 500 | D (D, >20 and ≤50) | 100 to 500 | E (E, <20) | – | – | – | – | – | – | – | – | –
2 | C[C@@H]1CCCCc2cc(ccn2)Nc2cc(n[nH]2)[C@H]2CC[C@H](C2)OC(=O)N1 [Compound 115, (1^1S,1^3R,9R,Z)-9-methyl-2^1H-12-oxa-3,10-diaza-4(4,2)-pyridina-2(3,5)-pyrazola-1(1,3)-cyclopentanacyclododecaphan-11-one] | 10 to 50 | E (E, <20) | 10 to 50 | 10 to 50 | 250 to 1250 | 10 to 50 | 10 to 50 | E (E, <20) | 100 to 500 | E (E, <20) | 50 to 100 | E (E, <20) | – | – | – | – | – | – | – | – | –
3 | O=C1NC2(CCCCc3cc(ccn3)Nc3cc(n[nH]3)[C@H]3CC[C@H](C3)O1)CC2 [Compound 116, (1′S,3′R,Z)-spiro[cyclopropane-1,9′-12-oxa-3,10-diaza-4(4,2)-pyridina-2(3,5)-pyrazola-1(1,3)-cyclopentanacyclododecaphan]-11′-one] | – | – | 10 to 50 | 10 to 50 | 250 to 1250 | – | – | – | – | – | – | – | – | – | – | – | – | – | – | – | IC50 (CDK6-CYCLIN D3; Table 17): 10 to 50 nM; CDK2 Fold selectivity, CDK6 (CDK6-CYCLIN D3; Table 18): E (E, <20); IC50 (CDK2-CYCLIN E1; Table 17): ≤ 10 nM; IC50 (CDK4-CYCLIN D1; Table 17): 10 to 50 nM; CDK2 Fold selectivity, CDK4 (CDK4-CYCLIN D1; Table 18): E (E, <20); IC50 (CDK9-CYCLIN T1; Table 17): 50 to 100 nM; CDK2 Fold selectivity, CDK9 (CDK9-CYCLIN T1; Table 18): D (D, >20 and ≤50); IC50 (CDK1-CYCLIN B; Table 17): 50 to 100 nM; CDK2 Fold selectivity, CDK1 (CDK1-CYCLIN B; Table 18): D (D, >20 and ≤50)
4 | O=C1NC23CC(CCOc4cncc(c4)Nc4cc(n[nH]4)[C@H]4CC[C@H](C4)O1)(C2)C3 [Compound 117, (1^1S,1^3R,Z)-2^1H-5,11-dioxa-3,9-diaza-4(3,5)-pyridina-2(3,5)-pyrazola-8(1,3)-bicyclo[1.1.1]pentana-1(1,3)-cyclopentanacycloundecaphan-10-one] | – | – | ≤ 2 | ≤ 2 | 50 to 250 | – | – | – | – | – | – | – | – | – | – | – | – | – | – | – | IC50 (CDK6-CYCLIN D3; Table 11): 10 to 50 nM; CDK2 Fold selectivity, CDK6 (CDK6-CYCLIN D3; Table 12): E (E, <20); IC50 (CDK2-CYCLIN E1; Table 11): ≤ 10 nM; IC50 (CDK4-CYCLIN D1; Table 11): 10 to 50 nM; CDK2 Fold selectivity, CDK4 (CDK4-CYCLIN D1; Table 12): E (E, <20); IC50 (CDK9-CYCLIN T1; Table 11): 10 to 50 nM; CDK2 Fold selectivity, CDK9 (CDK9-CYCLIN T1; Table 12): D (D, >20 and ≤50); IC50 (CDK1-CYCLIN B; Table 11): ≤ 10 nM; CDK2 Fold selectivity, CDK1 (CDK1-CYCLIN B; Table 12): E (E, <20)
5 | C[C@H]1CCCOc2cncc(c2)Nc2cc(n[nH]2)[C@H]2CC[C@H](C2)OC(=O)N1 [Compound 119, (1^1S,1^3R,9S,Z)-9-methyl-2^1H-5,12-dioxa-3,10-diaza-4(3,5)-pyridina-2(3,5)-pyrazola-1(1,3)-cyclopentanacyclododecaphan-11-one] | – | – | 2 to 10 | 10 to 50 | > 1250 | – | – | – | – | – | – | – | 10 to 50 | E (E, <20) | ≤ 10 | 100 to 500 | C (C, >50 and ≤100) | 100 to 500 | C (C, >50 and ≤100) | 10 to 50 | CDK2 Fold selectivity, CDK1 (CDK1-CYCLIN B; Table 14): D (D, >20 and ≤50)
6 | C[C@@H]1CCCOc2cncc(c2)Nc2cc(n[nH]2)[C@H]2CC[C@H](C2)OC(=O)N1 [Compound 120, (1^1S,1^3R,9R,Z)-9-methyl-2^1H-5,12-dioxa-3,10-diaza-4(3,5)-pyridina-2(3,5)-pyrazola-1(1,3)-cyclopentanacyclododecaphan-11-one] | – | – | 2 to 10 | 10 to 50 | > 1250 | – | – | – | – | – | – | – | 10 to 50 | E (E, <20) | ≤ 10 | 50 to 100 | C (C, >50 and ≤100) | 50 to 100 | C (C, >50 and ≤100) | 10 to 50 | CDK2 Fold selectivity, CDK1 (CDK1-CYCLIN B; Table 14): E (E, <20)
7 | C[C@@H]1CCCNC(=O)O[C@@H]2CC[C@@H](C2)c2cc([nH]n2)Nc2cncc(c2)O1 [Compound 121, (1^1S,1^3R,6R,Z)-6-methyl-2^1H-5,12-dioxa-3,10-diaza-4(3,5)-pyridina-2(3,5)-pyrazola-1(1,3)-cyclopentanacyclododecaphan-11-one] | – | – | 10 to 50 | 50 to 250 | > 1250 | – | – | – | – | – | – | – | 100 to 500 | C (C, >50 and ≤100) | ≤ 10 | > 500 | B (B, >100 and ≤500) | 100 to 500 | B (B, >100 and ≤500) | 100 to 500 | CDK2 Fold selectivity, CDK1 (CDK1-CYCLIN B; Table 14): D (D, >20 and ≤50)
8 | C[C@H]1CC/C=C/c2cc(ccn2)Nc2cc(n[nH]2)[C@H]2CC[C@H](C2)OC(=O)N1 [Compound 125, (1^1S,1^3R,2^4Z,5E,9S)-9-methyl-2^1H-12-oxa-3,10-diaza-4(4,2)-pyridina-2(3,5)-pyrazola-1(1,3)-cyclopentanacyclododecaphan-5-en-11-one] | 100 to 500 | D (D, >20 and ≤50) | 2 to 10 | 10 to 50 | 250 to 1250 | ≤ 10 | 100 to 500 | E (E, <20) | 100 to 500 | D (D, >20 and ≤50) | 100 to 500 | E (E, <20) | – | – | – | – | – | – | – | – | –
9 | C[C@@H]1CC/C=C/c2cc(ccn2)Nc2cc(n[nH]2)[C@H]2CC[C@H](C2)OC(=O)N1 [Compound 126, (1^1S,1^3R,2^4Z,5E,9R)-9-methyl-2^1H-12-oxa-3,10-diaza-4(4,2)-pyridina-2(3,5)-pyrazola-1(1,3)-cyclopentanacyclododecaphan-5-en-11-one] | 100 to 500 | E (E, <20) | 10 to 50 | 50 to 250 | 250 to 1250 | 50 to 100 | 100 to 500 | E (E, <20) | 100 to 500 | E (E, <20) | 100 to 500 | E (E, <20) | – | – | – | – | – | – | – | – | –
